Measurements as given in the kinase profiling compilation of Christmann-Franck et al. (2016).

Key:
Experiment in all cases: KINOMEscan competition binding
Settings in all cases: compound 10.0 µM
PRKD2 (human) = PRKD2 (human) (UniProt Q9BZL6)
ROCK1 (human) = ROCK1 (human) (UniProt Q13464)
PAK6 (human) = PAK6 (human) (UniProt Q9NQU5)
[1] = system: MET (human), P08581 [Y1235D]
MAP4K1 (human) = MAP4K1 (human) (UniProt Q92918)
BMPR1B (human) = BMPR1B (human) (UniProt O00238)
TNK1 (human) = TNK1 (human) (UniProt Q13470)
CDK17 (human) = CDK17 (human) (UniProt Q00537)
TBK1 (human) = TBK1 (human) (UniProt Q9UHD2)
CDK4 CCND1 (human) = CDK4 CCND1 (human) (UniProt P11802+P24385)
GRK4 (human) = GRK4 (human) (UniProt P32298)
[2] = system: RET (human), P07949 [M918T]
PRKG1 (human) = PRKG1 (human) (UniProt Q13976)
RPS6KA1 KD1 (human) = RPS6KA1 KD1 (human) (UniProt Q15418)
CAMKK1 (human) = CAMKK1 (human) (UniProt Q8N5S9)
MYO3A (human) = MYO3A (human) (UniProt Q8NEV4)
MAPK10 (human) = MAPK10 (human) (UniProt P53779)
CSK (human) = CSK (human) (UniProt P41240)
RPS6KA5 KD1 (human) = RPS6KA5 KD1 (human) (UniProt O75582)
TLK1 (human) = TLK1 (human) (UniProt Q9UKI8)
BRSK1 (human) = BRSK1 (human) (UniProt Q8TDC3)
FGFR4 (human) = FGFR4 (human) (UniProt P22455)
MAPK3 (human) = MAPK3 (human) (UniProt P27361)
ADCK3 (human) = ADCK3 (human) (UniProt Q8NI60)
MAP3K2 (human) = MAP3K2 (human) (UniProt Q9Y2U5)
TEK (human) = TEK (human) (UniProt Q02763)
PKN3 (M.tuberculosis) = PKN3 (M.tuberculosis) (UniProt Q6P5Z2)
CDC42BPB (human) = CDC42BPB (human) (UniProt Q9Y5S2)
CDK18 (human) = CDK18 (human) (UniProt Q07002)
CaMK1 (human) = CaMK1 (human) (UniProt Q14012)
LTK (human) = LTK (human) (UniProt P29376)
NEK7 (human) = NEK7 (human) (UniProt Q8TDX7)
NEK11 (human) = NEK11 (human) (UniProt Q8NG66)
EPHB4 (human) = EPHB4 (human) (UniProt P54760)
NTRK1 (human) = NTRK1 (human) (UniProt P04629)
ICK (human) = ICK (human) (UniProt Q9UPZ9)
SRPK1 (human) = SRPK1 (human) (UniProt Q96SB4)
MARK1 (human) = MARK1 (human) (UniProt Q9P0L2)
AURKC (human) = AURKC (human) (UniProt Q9UQB9)
MAPK15 (human) = MAPK15 (human) (UniProt Q8TD08)

Chain of MAP4K1 (human) (Q92918 whole entry, looked up): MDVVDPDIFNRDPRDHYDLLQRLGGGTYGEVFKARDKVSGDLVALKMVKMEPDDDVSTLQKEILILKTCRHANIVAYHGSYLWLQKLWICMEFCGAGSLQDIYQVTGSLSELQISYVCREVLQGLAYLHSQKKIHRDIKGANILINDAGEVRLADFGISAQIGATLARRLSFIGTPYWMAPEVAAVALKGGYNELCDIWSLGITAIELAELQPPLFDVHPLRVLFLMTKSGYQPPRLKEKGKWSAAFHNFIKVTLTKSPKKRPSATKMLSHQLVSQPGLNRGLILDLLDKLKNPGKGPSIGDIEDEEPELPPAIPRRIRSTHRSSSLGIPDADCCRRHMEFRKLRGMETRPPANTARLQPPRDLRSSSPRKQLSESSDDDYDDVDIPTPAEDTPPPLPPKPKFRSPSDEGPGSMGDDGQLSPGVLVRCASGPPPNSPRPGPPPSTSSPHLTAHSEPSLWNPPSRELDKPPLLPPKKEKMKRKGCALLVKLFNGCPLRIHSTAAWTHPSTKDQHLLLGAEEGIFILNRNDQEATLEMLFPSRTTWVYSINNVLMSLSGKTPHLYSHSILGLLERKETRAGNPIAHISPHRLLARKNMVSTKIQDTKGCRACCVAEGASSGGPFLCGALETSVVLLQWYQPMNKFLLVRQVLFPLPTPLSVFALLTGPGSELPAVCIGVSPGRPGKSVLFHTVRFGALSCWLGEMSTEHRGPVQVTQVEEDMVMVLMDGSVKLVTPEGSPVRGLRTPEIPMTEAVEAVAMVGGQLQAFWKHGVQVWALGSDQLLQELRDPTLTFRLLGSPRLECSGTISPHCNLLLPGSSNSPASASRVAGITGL
Chain of PAK6 (human) (Q9NQU5 whole entry, looked up): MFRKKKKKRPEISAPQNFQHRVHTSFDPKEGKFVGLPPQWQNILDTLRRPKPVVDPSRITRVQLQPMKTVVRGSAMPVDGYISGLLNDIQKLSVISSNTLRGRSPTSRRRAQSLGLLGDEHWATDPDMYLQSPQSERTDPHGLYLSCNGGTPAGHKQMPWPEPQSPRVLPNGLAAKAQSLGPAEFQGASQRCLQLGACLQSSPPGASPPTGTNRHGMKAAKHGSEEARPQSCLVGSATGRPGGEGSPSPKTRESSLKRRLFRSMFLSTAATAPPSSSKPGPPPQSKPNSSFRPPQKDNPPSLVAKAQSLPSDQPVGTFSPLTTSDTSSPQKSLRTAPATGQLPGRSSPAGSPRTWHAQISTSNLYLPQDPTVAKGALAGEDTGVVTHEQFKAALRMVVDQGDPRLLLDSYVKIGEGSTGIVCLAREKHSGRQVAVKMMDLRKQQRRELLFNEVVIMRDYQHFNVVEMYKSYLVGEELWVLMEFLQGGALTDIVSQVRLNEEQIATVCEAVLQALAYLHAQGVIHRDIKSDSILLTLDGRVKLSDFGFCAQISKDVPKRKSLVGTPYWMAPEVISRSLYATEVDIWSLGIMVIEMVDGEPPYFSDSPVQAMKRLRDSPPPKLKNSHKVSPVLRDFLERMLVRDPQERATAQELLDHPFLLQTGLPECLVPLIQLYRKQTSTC
Chain of SRPK1 (human) (Q96SB4 whole entry, looked up): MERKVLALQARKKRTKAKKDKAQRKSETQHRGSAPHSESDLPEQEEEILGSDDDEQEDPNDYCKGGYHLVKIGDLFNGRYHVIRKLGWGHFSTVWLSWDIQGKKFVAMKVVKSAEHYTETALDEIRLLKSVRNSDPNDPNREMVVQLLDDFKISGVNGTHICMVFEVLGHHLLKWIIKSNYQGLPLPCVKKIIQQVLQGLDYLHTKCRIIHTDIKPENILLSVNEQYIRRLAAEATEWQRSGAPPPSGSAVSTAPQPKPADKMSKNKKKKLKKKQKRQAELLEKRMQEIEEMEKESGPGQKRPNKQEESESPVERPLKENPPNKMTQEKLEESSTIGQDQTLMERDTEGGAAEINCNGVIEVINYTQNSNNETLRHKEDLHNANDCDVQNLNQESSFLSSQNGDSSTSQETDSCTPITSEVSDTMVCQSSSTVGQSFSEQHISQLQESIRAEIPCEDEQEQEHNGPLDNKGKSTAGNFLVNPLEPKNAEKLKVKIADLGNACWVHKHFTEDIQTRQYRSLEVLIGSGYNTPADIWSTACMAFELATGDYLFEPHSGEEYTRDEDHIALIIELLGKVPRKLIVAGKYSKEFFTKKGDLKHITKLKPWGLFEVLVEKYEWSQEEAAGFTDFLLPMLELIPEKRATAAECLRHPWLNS
Chain of CAMKK1 (human) (Q8N5S9 whole entry, looked up): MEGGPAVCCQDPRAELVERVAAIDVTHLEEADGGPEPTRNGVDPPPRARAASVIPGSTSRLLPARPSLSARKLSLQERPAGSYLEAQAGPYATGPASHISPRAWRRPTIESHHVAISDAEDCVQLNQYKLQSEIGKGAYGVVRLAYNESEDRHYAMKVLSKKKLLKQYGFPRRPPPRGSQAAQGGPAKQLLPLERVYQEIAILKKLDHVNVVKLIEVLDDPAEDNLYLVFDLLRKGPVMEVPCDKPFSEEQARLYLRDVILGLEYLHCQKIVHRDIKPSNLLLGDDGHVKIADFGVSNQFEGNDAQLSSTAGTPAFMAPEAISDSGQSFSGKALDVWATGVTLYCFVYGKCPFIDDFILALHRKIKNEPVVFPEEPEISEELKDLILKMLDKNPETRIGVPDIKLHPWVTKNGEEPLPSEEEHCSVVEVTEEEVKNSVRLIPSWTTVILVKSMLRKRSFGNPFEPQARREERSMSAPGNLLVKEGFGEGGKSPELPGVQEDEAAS
Chain of RET (human), P07949 [M918T] (P07949 whole entry M918T, looked up): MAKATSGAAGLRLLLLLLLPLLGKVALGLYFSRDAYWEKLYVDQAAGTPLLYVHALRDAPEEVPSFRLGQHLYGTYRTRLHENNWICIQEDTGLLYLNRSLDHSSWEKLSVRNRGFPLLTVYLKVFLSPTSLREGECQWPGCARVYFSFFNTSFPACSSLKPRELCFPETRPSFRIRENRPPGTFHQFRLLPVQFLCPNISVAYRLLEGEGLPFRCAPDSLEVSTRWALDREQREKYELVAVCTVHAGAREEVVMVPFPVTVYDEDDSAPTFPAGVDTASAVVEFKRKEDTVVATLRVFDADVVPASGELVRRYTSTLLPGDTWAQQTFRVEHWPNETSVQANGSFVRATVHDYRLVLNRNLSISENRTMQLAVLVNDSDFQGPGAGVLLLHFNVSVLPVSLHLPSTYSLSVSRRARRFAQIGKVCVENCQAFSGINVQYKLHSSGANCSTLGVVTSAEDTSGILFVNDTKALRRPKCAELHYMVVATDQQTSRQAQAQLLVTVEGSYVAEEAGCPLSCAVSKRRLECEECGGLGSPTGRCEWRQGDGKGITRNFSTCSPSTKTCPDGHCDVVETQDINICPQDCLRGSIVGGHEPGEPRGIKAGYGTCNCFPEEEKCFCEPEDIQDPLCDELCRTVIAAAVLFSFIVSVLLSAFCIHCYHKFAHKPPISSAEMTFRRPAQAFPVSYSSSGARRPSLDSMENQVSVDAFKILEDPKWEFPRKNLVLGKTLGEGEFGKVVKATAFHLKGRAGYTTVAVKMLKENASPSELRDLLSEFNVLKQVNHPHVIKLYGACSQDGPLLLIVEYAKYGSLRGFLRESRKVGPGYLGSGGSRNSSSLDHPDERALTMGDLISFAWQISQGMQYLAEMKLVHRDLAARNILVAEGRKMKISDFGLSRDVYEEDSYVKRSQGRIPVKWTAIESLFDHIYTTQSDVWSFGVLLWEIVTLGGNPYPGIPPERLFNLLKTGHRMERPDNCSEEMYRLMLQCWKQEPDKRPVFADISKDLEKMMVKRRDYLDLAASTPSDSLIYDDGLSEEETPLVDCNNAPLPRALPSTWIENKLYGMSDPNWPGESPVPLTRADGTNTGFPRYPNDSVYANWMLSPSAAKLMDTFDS
Chain of FGFR4 (human) (P22455 whole entry, looked up): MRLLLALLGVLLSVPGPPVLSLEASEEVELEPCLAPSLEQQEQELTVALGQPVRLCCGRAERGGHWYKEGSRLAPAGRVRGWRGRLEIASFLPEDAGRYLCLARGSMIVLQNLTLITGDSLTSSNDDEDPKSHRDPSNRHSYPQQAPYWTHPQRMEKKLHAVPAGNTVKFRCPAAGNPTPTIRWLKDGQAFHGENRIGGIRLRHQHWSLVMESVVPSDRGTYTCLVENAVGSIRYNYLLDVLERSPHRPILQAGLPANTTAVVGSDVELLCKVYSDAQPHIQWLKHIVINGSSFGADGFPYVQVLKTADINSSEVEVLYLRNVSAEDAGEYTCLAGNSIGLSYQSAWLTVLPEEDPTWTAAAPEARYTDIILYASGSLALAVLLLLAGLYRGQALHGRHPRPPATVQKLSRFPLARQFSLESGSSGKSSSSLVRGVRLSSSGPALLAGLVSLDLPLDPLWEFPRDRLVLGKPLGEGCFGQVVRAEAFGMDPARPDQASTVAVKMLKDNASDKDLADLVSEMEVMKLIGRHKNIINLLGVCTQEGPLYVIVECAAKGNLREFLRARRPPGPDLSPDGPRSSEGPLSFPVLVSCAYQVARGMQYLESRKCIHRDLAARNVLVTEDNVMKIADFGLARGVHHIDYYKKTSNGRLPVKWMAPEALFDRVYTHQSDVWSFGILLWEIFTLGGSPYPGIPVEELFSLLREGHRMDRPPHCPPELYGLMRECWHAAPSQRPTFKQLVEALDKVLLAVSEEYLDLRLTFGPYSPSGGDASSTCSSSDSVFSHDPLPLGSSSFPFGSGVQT
Chain of MAPK10 (human) (P53779 whole entry, looked up): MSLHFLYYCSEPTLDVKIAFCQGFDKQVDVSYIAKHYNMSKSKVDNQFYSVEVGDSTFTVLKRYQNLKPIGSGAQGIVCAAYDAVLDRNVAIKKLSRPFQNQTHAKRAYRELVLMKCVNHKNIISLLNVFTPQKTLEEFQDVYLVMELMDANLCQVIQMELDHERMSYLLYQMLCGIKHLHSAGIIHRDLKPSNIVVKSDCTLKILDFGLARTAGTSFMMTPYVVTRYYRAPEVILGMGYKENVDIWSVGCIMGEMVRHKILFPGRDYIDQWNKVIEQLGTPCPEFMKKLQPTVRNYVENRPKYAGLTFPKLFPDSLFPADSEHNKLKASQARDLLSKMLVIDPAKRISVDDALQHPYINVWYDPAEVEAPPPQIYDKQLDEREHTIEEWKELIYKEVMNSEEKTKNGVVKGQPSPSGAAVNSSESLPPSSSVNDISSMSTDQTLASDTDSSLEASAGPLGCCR

Structure (SMILES)	kinase still bound, per cent of control (PRKD2 (human)) [%]	kinase still bound, per cent of control (ROCK1 (human)) [%]	kinase still bound, per cent of control (PAK6 (human)) [%]	kinase still bound, per cent of control [1] [%]	kinase still bound, per cent of control (MAP4K1 (human)) [%]	kinase still bound, per cent of control (BMPR1B (human)) [%]	kinase still bound, per cent of control (TNK1 (human)) [%]	kinase still bound, per cent of control (CDK17 (human)) [%]	kinase still bound, per cent of control (TBK1 (human)) [%]	kinase still bound, per cent of control (CDK4 CCND1 (human)) [%]	kinase still bound, per cent of control (GRK4 (human)) [%]	kinase still bound, per cent of control [2] [%]	kinase still bound, per cent of control (PRKG1 (human)) [%]	kinase still bound, per cent of control (RPS6KA1 KD1 (human)) [%]	kinase still bound, per cent of control (CAMKK1 (human)) [%]	kinase still bound, per cent of control (MYO3A (human)) [%]	kinase still bound, per cent of control (MAPK10 (human)) [%]	kinase still bound, per cent of control (CSK (human)) [%]	kinase still bound, per cent of control (RPS6KA5 KD1 (human)) [%]	kinase still bound, per cent of control (TLK1 (human)) [%]	further results
C=CC(=O)Nc1cc(-n2c(=O)ccc3cnc4ccc(-c5cn[nH]c5)cc4c32)ccc1C	89	94	96	100	90	73	73	92	100	100	84	51	91	87	59	94	1.8	100	100	100	kinase still bound, per cent of control (BRSK1 (human)): 82%; kinase still bound, per cent of control (FGFR4 (human)): 100%; kinase still bound, per cent of control (MAPK3 (human)): 100%; kinase still bound, per cent of control (ADCK3 (human)): 91%; kinase still bound, per cent of control (MAP3K2 (human)): 88%; kinase still bound, per cent of control (TEK (human)): 100%; kinase still bound, per cent of control (PKN3 (M.tuberculosis)): 12%; kinase still bound, per cent of control (CDC42BPB (human)): 97%; kinase still bound, per cent of control (CDK18 (human)): 88%; kinase still bound, per cent of control (CaMK1 (human)): 96%; kinase still bound, per cent of control (LTK (human)): 100%; kinase still bound, per cent of control (NEK7 (human)): 100%; kinase still bound, per cent of control (NEK11 (human)): 100%; kinase still bound, per cent of control (EPHB4 (human)): 100%; kinase still bound, per cent of control (NTRK1 (human)): 65%; kinase still bound, per cent of control (ICK (human)): 67%; kinase still bound, per cent of control (SRPK1 (human)): 39%; kinase still bound, per cent of control (MARK1 (human)): 78%; kinase still bound, per cent of control (AURKC (human)): 100%; kinase still bound, per cent of control (MAPK15 (human)): 24%
COc1cc2ncnc(-n3nc(-c4ccccn4)nc3N)c2cc1OC	65	21	55	40	56	14	11	59	24	47	39	14	100	33	17	72	1.4	43	84	46	kinase still bound, per cent of control (BRSK1 (human)): 18%; kinase still bound, per cent of control (FGFR4 (human)): 96%; kinase still bound, per cent of control (MAPK3 (human)): 67%; kinase still bound, per cent of control (ADCK3 (human)): 10%; kinase still bound, per cent of control (MAP3K2 (human)): 33%; kinase still bound, per cent of control (TEK (human)): 45%; kinase still bound, per cent of control (PKN3 (M.tuberculosis)): 7.1%; kinase still bound, per cent of control (CDC42BPB (human)): 100%; kinase still bound, per cent of control (CDK18 (human)): 62%; kinase still bound, per cent of control (CaMK1 (human)): 31%; kinase still bound, per cent of control (LTK (human)): 24%; kinase still bound, per cent of control (NEK7 (human)): 1.4%; kinase still bound, per cent of control (NEK11 (human)): 80%; kinase still bound, per cent of control (EPHB4 (human)): 22%; kinase still bound, per cent of control (NTRK1 (human)): 48%; kinase still bound, per cent of control (ICK (human)): 47%; kinase still bound, per cent of control (SRPK1 (human)): 83%; kinase still bound, per cent of control (MARK1 (human)): 86%; kinase still bound, per cent of control (AURKC (human)): 6.2%; kinase still bound, per cent of control (MAPK15 (human)): 0.55%
